According to patent publication US20250101001A1 (priority 2021, published 2025):

Columns and labels:
[1] = type: in vivo; conditions: mice
Procedure: Head twitch response (HTR) experiments. C57BL/6J Mice (9-10 weeks old) are housed following an IACUC approved protocol. The mice are habituated in the test cage for at least 30 min, injected intraperitoneally with compound (injection volume 5 ml/kg), returned to the empty test cage, and filmed for 20 minutes. Each video is scored for the number of head-twitches by a trained observer blinded to treatment condition.

[2] = test system: 5HT2A sensor; type: cell-based
[3] = test system: 5HT2A sensor; type: cell-based; remark: listed apart in the source

| Compound | head-twitch response (HTR) [1] | competition with 5-HT in the 5HT2A sensor assay in antagonist mode [2] | activation of the 5HT2A sensor assay in agonist mode [3] |
| --- | --- | --- | --- |
| 6-MeO-DMT [Compound 6-MeO-DMT] | does not produce a HTR | compete off 5-HT | do not activate the 5HT2A sensor assay in agonist mode |
| CN(C)CCc1c[nH]c2ccccc12 [DMT, N,N-dimethyltryptamine] |  |  | activate the 5HT2A sensor assay in agonist mode |
| BOL148 |  | can compete with 5HT binding to 5HT2A | do not activate the 5HT2A sensor assay in agonist mode |
| O=C(c1ccc(F)cc1)C1CCN(CCn2c(=O)[nH]c3ccccc3c2=O)CC1 [Ketanserin] |  | can compete with 5HT binding to 5HT2A | do not activate the 5HT2A sensor assay in agonist mode |
| L-MDMA |  |  | do not activate the 5HT2A sensor assay in agonist mode |
| 5-MeO-DMT [Compound 5-MeO-DMT] | produces a robust, dose-dependent head-twitch response |  | activate the 5HT2A sensor assay in agonist mode |
| 6-F-DET [Compound 6-F-DET] |  | can compete with 5HT binding to 5HT2A | do not activate the 5HT2A sensor assay in agonist mode |
